Here are results for seven compounds from patent publication US20250339569A1, “CARBONIC ANHYDRASE IX LIGANDS” (priority 2021, published 2025).

Data set [1] relates to SK-RC-52 (ccRCC) human cancer cell line xenograft. As to the kind of experiment: In vivo efficacy, uptake and tolerability of 177Lu-DPI-4452 (and 68Ga-DPI-4452) in SK-RC-52 xenograft mouse model. Also noted: species or system NMRI nude mice. The conditions noted are these: SK-RC-52 model; for tolerability of treatment: 177Lu 33 or 100 MBq or 3×33 MBq, 68Ga 10 MBq, i.v.; for uptake in tumor compared to kidney and liver: SPECT/CT 4 h (177Lu) or PET/CT 1 h (68Ga). As to the method:
(§1) The human colorectal cancer cell line HT-29 was cultured in Modified McCoy's 5a Medium supplemented with 10% FBS+1% Pen/Strep, and the human clear cell renal cancer cell line SK-RC-52 was cultured in RPMI-1640 GlutaMax-I supplemented with 10% FBS+1% Pen/Strep.
(§2) 2×10^6 cells were suspended in 100 μL PBS and Matrigel (1:1) and subcutaneously implanted into the neck of anesthetized female immunodeficient NMRI nude mice. Tumor volume (0.52×(length×width^2)) and animal weight was monitored twice weekly until 42 days post treatment initiation. Animals were humanely euthanized by cervical dislocation at predefined study or humane endpoints.
(§3) Animals were randomized into equal groups based on tumor volume and body weight. Treatments were initiated at a mean group tumor volume of 140-180 mm^3 and administered intravenously in the tail vein in a 100 μL dosing volume.
(§4) For both models, treatment groups consisted of 10 mice per group and received either a A) Single administration (day 1) of vehicle, B) Single administration (day 1) of 100 MBq of ^177Lu-DPI-4452, C) Single administration (day 1) of 33 MBq of ^177Lu-DPI-4452 or D) Three administrations (day 1, 8, 15) of 33 MBq of ^177Lu-DPI-4452. To correlate the ^68Ga-DPI-4452 signal with the ^177Lu-DPI-4452 uptake in tumors, an additional satellite group E of 6 mice received a single administration (day 1) of 10 MBq of ^68Ga-DPI-4452 followed by a single administration (day 8) of 33 MBq of ^177Lu-DPI-4452.
(§5) In groups A-D, radioactivity uptake (as % of injected dose/gram tissue) was assessed in the tumor, kidney, and liver in 3 animals per treatment group by whole-body SPECT/CT imaging (nanoScan SPECT/CT, Mediso) at 4 h after each ^177Lu-DPI-4452 administration, using the following parameters: • Imaging bed: Two/three mice bed • CT acquisition • Helical scan, 480 projections • Pitch=1.0 • Voltage=50 kVp • Exposure=170 ms • SPECT acquisition: • Pinhole SPECT • Energy windows: Primor Peak 208 full width: 20%, Secondary 112.9, Tertiary: 56.1 keV • Acquisition time: Up to 30 min • Frame time: 30 s
(§6) In the satellite mice (group E), radioactivity uptake (as % of injected dose/gram tissue) was assessed in the tumor, kidney, and liver in all 6 animals by both whole-body SPECT imaging at 4 h after administration of 33 MBq ^177Lu-DPI-4452, and by whole-body PET/CT imaging (nanoScan PET/CT, Mediso) at 1 h after 10 MBq ^68Ga-DPI-4452 administration, using the following parameters: • Animals per bed: 3 • PET acquisition time: Up to 10 min • PET acquisition start: 1 hour after injection
(§7) One week later the 6 satellite mice were then assessed again for radioactivity uptake by whole-body SPECT/CT imaging at 4 h after the single ^177Lu-DPI-4452 administration using parameters as described above.
(§8) For both models blood sampling for hematology was performed on all animals in group A-D at study day −1, 7, 14 and at study end. Each mouse was restrained and 200 μl blood was obtained from the sublingual or jugular vein in EDTA-tubes and analyzed on the sampling day on a ProCyte Dx Hematology Analyzer with mouse settings. In addition, for the SK-RC-52 model at study day 14 and at study end (day 43), excess blood from the hematology analysis was spun and plasma was obtained (centrifugation at 2000 g for 10 mins at 4° C. in EDTA tubes). The plasma was analyzed for creatinine and urea concentrations using a KONELAB PRIME 30i instrument (Thermo Fisher Scientific).

Data set [2] has as its system HT-29 (CRC) human cancer cell line xenograft. Description: In vivo efficacy, uptake and tolerability of 177Lu-DPI-4452 (and 68Ga-DPI-4452) in HT-29 xenograft mouse model. Details: species or system NMRI nude mice. The conditions noted are these: HT-29 model; for tolerability of treatment: 177Lu 33 or 100 MBq or 3×33 MBq, 68Ga 10 MBq, i.v.; for uptake in tumor compared to kidney and liver: SPECT/CT 4 h (177Lu) or PET/CT 1 h (68Ga). How it is done:
as §1, §2, §3, §4, §5, §6, §7, §8

The target in data set [3] is T1, CAIX-expressing human HT-29 colorectal cancer cells (Homo sapiens, UniProt Q16790).
T1 construct: CAIX-expressing human HT-29 colorectal cancer cells; host or cells: HT-29 human colorectal cancer cells
Description: FACS binding assay (EC50 determination, labeled compound). The conditions noted are these: biotinylated or fluorophore-labeled compound, HT-29 cells, 4°C, 1 hour, read-out: pEC50 category (activity) (converted). As to the method: In order to determine binding of compounds according to the present invention to CAIX-expressing cells, a FACS binding assay was established.
CAIX-expressing human HT-29 colorectal cancer cells (DSMZ, RRID: CVCL_0320) were cultured in McCoys's 5A modified medium (Biochrom, #F1015) including 10% fetal calf serum (FCS), 2 mM L-glutamine, 100 U/ml penicillin and 100 μg/mL streptomycin. Cells were detached with Accutase (Biolegend, #423201) and washed in FACS buffer (PBS including 1% FCS). Cells were diluted in FACS buffer to a final concentration of 500.000 cells per ml. 200 μL of the cell suspension were transferred to a u-shaped non-binding 96-well plate (Greiner) and cells were washed in ice-cold FACS buffer.
When biotinylated compounds were used an additional incubation step with 1 μg/mL APC-Streptavidin (Miltenyi; #130-106-791) in 50 μL FACS buffer for 30 minutes on ice was performed.
Cells were washed twice with ice-cold FACS buffer and analyzed in an Attune NxT flow cytometer (Thermo Fisher). Median fluorescence intensities (MFI) of the APC/Cy5-channel were calculated by Attune NxT software. MFI values were plotted against peptide concentration and four parameter logistic (4PL) curve fitting and EC50/pEC50 or IC50/pIC50 calculations were performed using ActivityBase software.
On the technique in general: In flow cytometry, cells or beads pass a laser one at a time.

Starred links: 1 amine or outer side, 2 acyl side, 3 side chain; linkers in the order of their positions; H or OH if unused. Positions of bridges follow the written chain, without caps; N, C: chain ends. Non-standard residues stand in square brackets, D forms with d. Residues, ends and D or L forms follow the SMILES beside them. *: point of attachment. X47 = NC(=O)[C@H](CCCCNC(=O)CCCC[C@@H]1SC[C@@H]2NC(=O)N[C@@H]21)NC(=O)CCC(=O)NCCCOCCOCCOCCCN*; X69 = CC1(C)C(/C=C/C=C/C=C2\N(CCCCS(=O)(=O)O)c3ccccc3C2(C)C)=[N+](CCCCCC(=O)*)c2ccccc21; mXylylene = c1cc(C[*:1])cc(C[*:2])c1; X2 = O=C(CN1CCC(N[*:1])CC1)[*:2]

Take `CC(C)C[C@@H]1NC(=O)[C@H](Cc2cccc(NC(=O)CCCS(N)(=O)=O)c2)NC(=O)[C@H](CC(=O)O)NC(=O)[C@H]2CCCN2C(=O)[C@H](CCC(=O)O)NC(=O)[C@@H](NC(=O)[C@H](CCC(N)=O)NC(=O)CN2CCN(C(=O)CN3CCN(CC(=O)O)CCN(CC(=O)O)CCN(CC(=O)O)CC3)CC2)CSCc2cccc(c2)CSC[C@@H](C(N)=O)NC(=O)[C@H](CO)NC(=O)[C@H](Cc2c[nH]c3ccccc23)NC(=O)[C@H]([C@@H](C)O)NC1=O` [^68Ga-DPI-4452, metal not drawn]: in data set [1], the tolerability of treatment entry is recorded as “well tolerated”; the “uptake in tumor compared to kidney and liver” value is listed as “Preferential tumor uptake”. Besides, in data set [2], the tolerability of treatment entry is reported as “well tolerated”; the “uptake in tumor compared to kidney and liver” value is given as “Preferential tumor uptake”.
Consider `CSCC[C@H](N)C(=O)N[C@H](C(=O)N[C@@H](Cc1ccc(O)cc1)C(=O)N[C@H]1CSCc2cccc(c2)CSC[C@@H](C(=O)NCCCOCCOCCOCCCNC(=O)CCC(=O)N[C@@H](CCCCNC(=O)CCCC[C@@H]2SC[C@@H]3NC(=O)N[C@@H]32)C(N)=O)NC(=O)[C@H](CCC(N)=O)NC(=O)[C@H](Cc2c[nH]c3ccccc23)NC(=O)[C@H]([C@@H](C)O)NC(=O)[C@H](CC(C)C)NC(=O)[C@H](Cc2c[nH]c3ccccc23)NC(=O)[C@H](CC(=O)O)NC(=O)CNC(=O)[C@H](CCC(=O)O)NC1=O)C(C)C` [3BP-2776] (H-MVYCEGDWLTWQC-X47; linker 4-13 via mXylylene), for which the EC50 in data set [3] is under 10 nM.
Same read-out and setting: in the case of `CSCC[C@H](N)C(=O)N[C@H](C(=O)N[C@@H](Cc1ccc(O)cc1)C(=O)N[C@H]1CSCc2cccc(c2)CSC[C@@H](C(=O)NCCCOCCOCCOCCCNC(=O)CCC(=O)N[C@@H](CCCCNC(=O)CCCC[C@@H]2SC[C@@H]3NC(=O)N[C@@H]32)C(N)=O)NC(=O)[C@H](CO)NC(=O)[C@H](Cc2c[nH]c3ccccc23)NC(=O)CNC(=O)[C@H](CC(C)C)NC(=O)[C@H](Cc2c[nH]c3ccccc23)NC(=O)[C@H](CO)NC(=O)CNC(=O)[C@H](CCC(=O)O)NC1=O)C(C)C` [3BP-2777] (H-MVYCEGSWLGWSC-X47; linker 4-13 via mXylylene) it was under 10 nM; in that of `CC[C@H](C)[C@@H]1NC(=O)[C@H](CCC(=O)O)NC(=O)[C@@H](NC(=O)[C@H](CCC(N)=O)NC(=O)[C@@H](N)CCSC)CSCc2cccc(c2)CSC[C@@H](C(=O)NCCCOCCOCCOCCCNC(=O)CCC(=O)N[C@@H](CCCCNC(=O)CCCC[C@@H]2SC[C@@H]3NC(=O)N[C@@H]32)C(N)=O)NC(=O)[C@H]([C@@H](C)O)NC(=O)[C@H](C(C)C)NC(=O)[C@H](Cc2c[nH]c3ccccc23)NC(=O)CNC(=O)[C@H](CC(=O)O)NC(=O)[C@H](C(C)C)NC(=O)[C@H](Cc2c[nH]c3ccccc23)NC1=O` [3BP-2775] (H-MQCEIWVDGWVTC-X47; linker 3-13 via mXylylene), 10 to 79.4 nM.
Consider `CC(C)C[C@@H]1NC(=O)[C@H](Cc2cccc(NC(=O)CCCS(N)(=O)=O)c2)NC(=O)[C@H](CC(=O)O)NC(=O)[C@H]2CCCN2C(=O)[C@H](CCC(=O)O)NC(=O)[C@@H](NC(=O)[C@H](CCC(N)=O)NC(=O)CN2CCN(C(=O)CN3CCN(CC(=O)O)CCN(CC(=O)O)CCN(CC(=O)O)CC3)CC2)CSCc2cccc(c2)CSC[C@@H](C(N)=O)NC(=O)[C@H](CO)NC(=O)[C@H](Cc2c[nH]c3ccccc23)NC(=O)[C@H]([C@@H](C)O)NC1=O` [^177Lu-DPI-4452, metal not drawn], for which the “white blood cells, lymphocytes and neutrophils versus vehicle” value in data set [1] (33/100 MBq) and in data set [2] (33/100 MBq) was “relative suppression” each time. For the same compound, the “creatinine and urea levels” value in data set [1] (plasma, day 14 and study end) was “No differences in creatinine and urea levels between treatment groups”. For the same compound, the tolerability of treatment entry in data set [1] and in data set [2] was “well tolerated” each time. For the same compound, the “uptake in tumor compared to kidney and liver” value in data set [1] is “Preferential uptake in the tumor compared to kidney and liver”; in data set [2], “Preferential uptake in the tumor compared to kidney and liver”.
`CC(C)C[C@@H]1NC(=O)[C@H](Cc2c[nH]c3ccccc23)NC(=O)[C@H](CC(=O)O)NC(=O)[C@H]2CCCN2C(=O)[C@H](CCC(=O)O)NC(=O)[C@@H](NC(=O)[C@H](Cc2ccc(O)cc2)NC(=O)[C@@H](NC(=O)CN2CCC(NC(=O)CCCCC[N+]3=C(/C=C/C=C/C=C4\N(CCCCS(=O)(=O)O)c5ccccc5C4(C)C)C(C)(C)c4ccccc43)CC2)C(C)C)CSCc2cccc(c2)CSC[C@@H](C(N)=O)NC(=O)[C@H](CO)NC(=O)[C@H](Cc2c[nH]c3ccccc23)NC(=O)[C@H]([C@@H](C)O)NC1=O` [3BP-4149, Cy5SO3-APAc-Val-Tyr-[Cys(3MeBn)-Glu-pro-Asp-Trp-Leu-Thr-Trp-Ser-Cys]-NH2] (X69-[X2]VYCE[dP]DWLTWSC-NH2; linker 4-13 via mXylylene): the EC50 in data set [3] is under 10 nM.
On the same count and under the same terms, then `CC[C@H](C)[C@@H]1NC(=O)[C@H](CCC(=O)O)NC(=O)[C@@H](NC(=O)[C@H](CCCNC(=N)N)NC(=O)[C@@H](N)CCSC)CSCc2cccc(c2)CSC[C@@H](C(=O)NCCCOCCOCCOCCCNC(=O)CCC(=O)N[C@@H](CCCCNC(=O)CCCC[C@@H]2SC[C@@H]3NC(=O)N[C@@H]32)C(N)=O)NC(=O)[C@H](CC(=O)O)NC(=O)[C@H](C(C)C)NC(=O)[C@H](Cc2c[nH]c3ccccc23)NC(=O)CNC(=O)[C@H](CC(=O)O)NC(=O)[C@H](C(C)C)NC(=O)[C@H](Cc2c[nH]c3ccccc23)NC1=O` [3BP-2778] (H-MRCEIWVDGWVDC-X47; linker 3-13 via mXylylene), with under 10 nM.
